Drawing on patent publication US11180504B2 (ORCHID PHARMA LTD., priority 2016, dated 2021), this text covers MIC for 17 molecules.

In brackets after ≈: the same amount, converted by molar mass.

The subject of test [1] is carbapenem sensitive Pseudomonas aeruginosa. Description: MIC by broth micro-dilution (CLSI), carbapenem sensitive P. aeruginosa. The class given is cell-based. As to conditions: Pseudomonas aeruginosa, ATCC27853, Meropenem susceptible P. aeruginosa ATCC27853; read-out: MIC. On the technique in general: In broth dilution the organism is exposed to a series of concentrations in liquid medium.

For test [2], the system named is carbapenem sensitive Escherichia coli. Briefly: MIC by broth micro-dilution (CLSI), carbapenem sensitive E. coli. Type of test: cell-based. As to conditions: Escherichia coli, ATCC25922, ESBL −ve E. coli ATCC25922; read-out: MIC.
Test [3] concerns methicillin-sensitive Staphylococcus aureus. Briefly: MIC by broth micro-dilution (CLSI), methicillin-sensitive S. aureus. The class given is cell-based. As to conditions: Staphylococcus aureus, ATCC 29213 / MSSA, MSSA S. aureus ATCC29213; read-out: MIC.
The test system of test [4] is carbapenemase producing K. pneumoniae. Description: MIC by broth micro-dilution (CLSI), carbapenemase producing K. pneumoniae. Type of test: cell-based, Klebsiella pneumoniae. The settings on record: Klebsiella pneumoniae, ATCCBAA1705, KPC-2 K. pneumoniae ATCC BAA-1705; read-out: MIC.

By MIC is commonly meant the lowest concentration found to suppress growth.

As to `C[C@@H](NC(=O)[C@@H]1CS(=O)(=O)CN1)[C@H]1C(=O)N2C(C(=O)O)=C(S[C@@H]3CN[C@H](CNS(N)(=O)=O)C3)[C@H](C)[C@H]12` [Example 281], the MIC turned out to be 64 µg/mL (≈ 113 µM) in test [1], 8 µg/mL (≈ 14.1 µM) in test [2], 32 µg/mL (≈ 56.5 µM) in test [3] and 16 µg/mL (≈ 28.2 µM) in test [4].
With `C[C@@H](NC(=O)Cn1cnnn1)[C@H]1C(=O)N2C(C(=O)O)=C(SC3CN(C(=O)[C@@H]4C[C@H](N)CN4)C3)[C@H](C)[C@H]12` [Example 387], the MIC in test [1] came to 32 µg/mL (≈ 61.6 µM); in test [2] it was 0.25 µg/mL (≈ 0.481 µM); in test [3], 8 µg/mL (≈ 15.4 µM); in test [4], 8 µg/mL (≈ 15.4 µM).
Take `C[C@@H](NS(=O)(=O)Cn1ncnn1)[C@H]1C(=O)N2C(C(=O)O)=C(S[C@@H]3CN[C@H](C(=O)N4CC[C@@H](N)C4)C3)[C@H](C)[C@H]12` [Example 382, (4R,5S,6S)-6-((R)-1-((2H-tetrazol-2-yl)methylsulfonamido)ethyl)-3-((3S,5S)-5-((R)-3-aminopyrroldine-1-carbonyl)pyrrolidin-3-ylthio)-4-methyl-7-oxo-1-azabicyclo[3.2.0]hept-2-ene-2-carboxylic acid]: the minimum inhibitory concentration (MIC) in test [1] was determined as 128 µg/mL (≈ 225 µM); in test [2], 1 µg/mL (≈ 1.76 µM); in test [3] it was 16 µg/mL (≈ 28.1 µM); in test [4] it was 4 µg/mL (≈ 7.02 µM).
The matching figures for `C[C@@H](NC(=O)Cn1cnnn1)[C@H]1C(=O)N2C(C(=O)O)=C(S[C@@H]3CN[C@H](C(=O)N4CC(N)C(N)C4)C3)[C@H](C)[C@H]12` (stereo partly drawn) [Example 413, (4R,5S,6R)-6-((R)-1-(2-(1H-tetrazol-1-yl)acetamido)ethyl)-3-((3S,5S)-5-(3,4-diaminopyrrolidine-1-carbonyl)pyrrolidin-3-ylthio)-4-methyl-7-oxo-1-azabicyclo[3.2.0]hept-2-ene-2-carboxylic acid]: 2 µg/mL (≈ 3.65 µM), 0.25 µg/mL (≈ 0.456 µM), 2 µg/mL (≈ 3.65 µM) and 2 µg/mL (≈ 3.65 µM).
Take `C[C@@H](NC(=O)Cn1cnnn1)[C@H]1C(=O)N2C(C(=O)O)=C(S[C@@H]3CN[C@H](C(=O)N4CC(O)C(CN)C4)C3)[C@H](C)[C@H]12` (single isomer, unassigned) [Example 510]: the minimum inhibitory concentration (MIC) stood at 1 µg/mL (≈ 1.77 µM) in test [1], 0.25 µg/mL (≈ 0.444 µM) in test [2], 4 µg/mL (≈ 7.1 µM) in test [3] and 4 µg/mL (≈ 7.1 µM) in test [4].
For the molecule `CNCC(=O)N[C@H](C)[C@H]1C(=O)N2C(C(=O)O)=C(S[C@@H]3CN[C@H](C(=O)N4CCC(C)(N)CC4)C3)[C@H](C)[C@H]12` [Example 278], the minimum inhibitory concentration (MIC) was 4 µg/mL (≈ 7.65 µM) in test [1], 2 µg/mL (≈ 3.83 µM) in test [2], 16 µg/mL (≈ 30.6 µM) in test [3] and 2 µg/mL (≈ 3.83 µM) in test [4].
In the case of `C[C@@H](NC(=O)Cn1cnnn1)[C@H]1C(=O)N2C(C(=O)O)=C(S[C@@H]3CN[C@H](C(=O)N4CCN(CCCN)CC4)C3)[C@H](C)[C@H]12` [Example 445, (4R,5S,6R)-6-((R)-1-(2-(1H-tetrazol-1-yl)acetamido)ethyl)-3-((3S,5S)-5-(4-(3-aminopropyl)piperazine-1-carbooyl)pyrrolidin-3-ylthio)-4-methyl-7-oxo-1-azabicyclo[3.2.0]hept-2-ene-2-carboxylic acid], the MIC was 1 µg/mL (≈ 1.69 µM) in test [1], 0.25 µg/mL (≈ 0.423 µM) in test [2], 2 µg/mL (≈ 3.39 µM) in test [3] and 1 µg/mL (≈ 1.69 µM) in test [4].
For `C[C@@H](NC(=O)Cn1cnnn1)[C@H]1C(=O)N2C(C(=O)O)=C(S[C@@H]3CN[C@H](C(=O)N(CCO)CCO)C3)[C@H](C)[C@H]12` [Example 436, (4R,5S,6R)-6-((R)-1-(2-(1H-tetrazol-1-yl)acetamido)ethyl)-3-((3S,5S)-5-(bis(2-hydroxyethyl)carbarnoyl)pyrrolidin-3-ylthio)-4-methyl-7-oxo-1-azabicyclo[3.2.0]hept-2-ene-2-carboxylic acid], the MIC in test [1] is 8 µg/mL (≈ 14.5 µM); in test [2], 0.25 µg/mL (≈ 0.452 µM); in test [3] it was 8 µg/mL (≈ 14.5 µM); in test [4], 1 µg/mL (≈ 1.81 µM).
Take `C[C@@H](NC(=O)Cn1cnnn1)[C@H]1C(=O)N2C(C(=O)O)=C(S[C@@H]3CN[C@H](CNS(N)(=O)=O)C3)[C@H](C)[C@H]12` [Example 305, (4R,5S,6R)-6-((R) - 1-(2-(1H-tetrazol-1-yl)acetamido)ethyl)-4-methyl-7-oxo-3-((3S,5S)-5-((sulfamoylamino)methyl)pyrrolidin-3-ylthio)-1-azabicyclo[3.2.0]hept-2-ene-2-carboxylic acid]: the minimum inhibitory concentration (MIC) in test [1] was found to be 8 µg/mL (≈ 15.1 µM); in test [2] it was 0.25 µg/mL (≈ 0.472 µM); in test [3] it was 2 µg/mL (≈ 3.78 µM); in test [4], 1 µg/mL (≈ 1.89 µM).
The matching figures for `C[C@@H](NC(=O)Cn1cnnn1)[C@H]1C(=O)N2C(C(=O)O)=C(S[C@@H]3CN[C@H](C(=O)N4CCC(CN)CC4)C3)[C@H](C)[C@H]12` [Example 404, (4R,5S,6R)-6-((R)-1-(2-(1H-tetrazol-1-yl)acetamido)ethyl)-3-((3S,5S)-5-(4-(aminomethyl)piperidine-1-carbanoyl)pyrrolidin-3-ylthio)-4-methyl-7-oxo-1-azabicyclo[3.2.0]hept-2-ene-2-carboxylic acid]: 1 µg/mL (≈ 1.78 µM), 0.25 µg/mL (≈ 0.445 µM), 1 µg/mL (≈ 1.78 µM) and 0.5 µg/mL (≈ 0.89 µM).
In the case of `CNCc1nnc(CC(=O)N[C@H](C)[C@H]2C(=O)N3C(C(=O)O)=C(S[C@@H]4CN[C@H](C(=O)N(C)C)C4)[C@H](C)[C@H]23)o1` [Example 295], the minimum inhibitory concentration (MIC) in test [1] was found to be 64 µg/mL (≈ 119 µM); in test [2], 2 µg/mL (≈ 3.73 µM); in test [3], 16 µg/mL (≈ 29.9 µM); in test [4] it was 16 µg/mL (≈ 29.9 µM).
As to `C[C@@H](NC(=O)Cn1cnnn1)[C@H]1C(=O)N2C(C(=O)O)=C(S[C@@H]3CN[C@H](C(=O)N4CCN(C[C@H](N)CN)CC4)C3)[C@H](C)[C@H]12` [Example 457, (4R,5S,6R)-6-((R)-1-(2-(1H-tetrazol-1-yl)acetamido)ethyl)-3-((3S,5S)-5-(4-((R)-2,3-diaminopropyl)piperazine-1-carbonyl)pyrrolidin-3-ylthio)-4-methyl-7-oxo-1-azabicyclo[3.2.0]hept-2-ene-2-carboxylic acid], the minimum inhibitory concentration (MIC) in test [1] is 1 µg/mL (≈ 1.65 µM); in test [2], 0.25 µg/mL (≈ 0.413 µM); in test [3], 2 µg/mL (≈ 3.3 µM); in test [4], 1 µg/mL (≈ 1.65 µM).
In the case of `C[C@@H](NC(=O)Cn1cnnn1)[C@H]1C(=O)N2C(C(=O)O)=C(S[C@@H]3CN[C@H](C(=O)N4CCC(N)(CC#N)CC4)C3)[C@H](C)[C@H]12` [Example 371, (4R,5S,6R)-6-((R)-1-(2-(1H-tetrazol-1-yl)acetamido)ethyl)-3-((3S,5S)-5-(4-amino-4-(cyanomethyl)piperidine-1-carbonyl)pyrrolidin-3-ylthio)-4-methyl-7-oxo-1-azabicyclo[3.2.0]hept-2-ene-2-carboxylic acid], the MIC in test [1] was found to be 64 µg/mL (≈ 109 µM); in test [2], 1 µg/mL (≈ 1.7 µM); in test [3], 16 µg/mL (≈ 27.3 µM); in test [4], 4 µg/mL (≈ 6.82 µM).
The matching figures for `C[C@@H](NC(=O)Cn1cnnn1)[C@H]1C(=O)N2C(C(=O)O)=C(S[C@@H]3CN[C@H](C(=O)N4C[C@H](CO)[C@@H](NC(=N)N)C4)C3)[C@H](C)[C@H]12` [Example 592, (4R,5S,6R)-6-((R)-1-(2-(1H-tetrazol-1-yl)acetamido)ethyl)-3-((3S,5S)-5-((3R,4S)-3-guanidino-4-diazabicyclo[3.2.0]heptane-3-(hydroxymethyl)pyrrolidine-1-carbonyl)pyrrolidin-3-ylthio)-4-methyl-7-oxo-1-azabicyclo[3.2.0]hept-2-ene-2-carboxylic acid]: 0.5 µg/mL (≈ 0.826 µM), 0.125 µg/mL (≈ 0.206 µM), 2 µg/mL (≈ 3.3 µM) and 0.5 µg/mL (≈ 0.826 µM).
The matching figures for `C[C@@H](NC(=O)Cn1cnnn1)[C@H]1C(=O)N2C(C(=O)O)=C(S[C@@H]3CN[C@H](C(=O)N4CCN(CCN)CC4)C3)[C@H](C)[C@H]12` [Example 364, (4R,5S,6R)-6-((R)-1-(2-(1H-tetrazol-1-yl)acetamido)ethyl)-3-((3S,5S)-5-(4-(2-aminoethyl)piperazine-1-carbonyl)pyrrolidin-3-ylthio)-4-methyl-7-oxo-1-azabicyclo[3.2.0]hept-2-ene-2-carboxylic acid]: 1 µg/mL (≈ 1.73 µM), 0.25 µg/mL (≈ 0.434 µM), 4 µg/mL (≈ 6.94 µM) and 2 µg/mL (≈ 3.47 µM).
For `C[C@@H](NC(=O)Cn1cnnn1)[C@H]1C(=O)N2C(C(=O)O)=C(S[C@@H]3CN[C@H](C(=O)N4C[C@@H]5NCCO[C@@H]5C4)C3)[C@H](C)[C@H]12` [Example 353, (4R,5S,6R)-6-((R)-1-(2-(1H-tetrazol-1-yl)acetamido)ethyl)-4-methyl-3-((3S,5S)-5-((4aS,7aR)-octahydropyrrolo[3,4-b][1,4]oxazine-6-carbonyl)pyrrolidin-3-ylthio)-7-oxo-1-azabicyclo[3.2.0]hept-2-ene-2-carboxylic acid], the minimal inhibitory concentration (MIC) was 16 µg/mL (≈ 27.8 µM) in test [1], 0.25 µg/mL (≈ 0.434 µM) in test [2], 16 µg/mL (≈ 27.8 µM) in test [3] and 2 µg/mL (≈ 3.47 µM) in test [4].
For `C[C@@H](NC(=O)Cn1cnnn1)[C@H]1C(=O)N2C(C(=O)O)=C(S[C@@H]3CN[C@H](C(=O)N4C[C@H](N)C[C@H]4CNS(N)(=O)=O)C3)[C@H](C)[C@H]12` [Example 455, (4R,5S,6R)-6-((R)-1-(2-(1H-tetrazol-1-yl)acetamido)ethyl)-3-((3S,5S)-5-((2S,4R)-4-amino-2-((sulfamoylamino)methyl)pyrrolidine-1-carbonyl)pyrrolidin-3-ylthio)-4-methyl-7-oxo-1-azabicyclo[3.2.0]hept-2-ene-2-carboxylic acid], the minimum inhibitory concentration (MIC) in test [1] came to 4 µg/mL (≈ 6.23 µM); in test [2], 0.5 µg/mL (≈ 0.779 µM); in test [3], 4 µg/mL (≈ 6.23 µM); in test [4], 2 µg/mL (≈ 3.12 µM).
